# Measured values: ChEMBL document CHEMBL3351387, “Bioisosteric replacement of an acylureido moiety attached to an indolin-2-one scaffold with a malonamido or a 2/4-pyridinoylamido moiety produces a selectively potent Aurora-B inhibitor” (Eur J Med Chem, 2014)
# Tests used:
# [1] = target: Vascular endothelial growth factor receptor 2 (Homo sapiens, UniProt P35968); test: Inhibition of VEGFR2 (unknown origin) using poly[Glu:Tyr] substrate by radioisotope-based P81 filter-binding assay
# [2] = target: T1, Aurora kinase A (Homo sapiens, UniProt O14965); test: Inhibition of Aurora A (unknown origin) using H-LRRASLG substrate by radioisotope-based P81 filter-binding assay
# T1 sequence (O14965 whole entry): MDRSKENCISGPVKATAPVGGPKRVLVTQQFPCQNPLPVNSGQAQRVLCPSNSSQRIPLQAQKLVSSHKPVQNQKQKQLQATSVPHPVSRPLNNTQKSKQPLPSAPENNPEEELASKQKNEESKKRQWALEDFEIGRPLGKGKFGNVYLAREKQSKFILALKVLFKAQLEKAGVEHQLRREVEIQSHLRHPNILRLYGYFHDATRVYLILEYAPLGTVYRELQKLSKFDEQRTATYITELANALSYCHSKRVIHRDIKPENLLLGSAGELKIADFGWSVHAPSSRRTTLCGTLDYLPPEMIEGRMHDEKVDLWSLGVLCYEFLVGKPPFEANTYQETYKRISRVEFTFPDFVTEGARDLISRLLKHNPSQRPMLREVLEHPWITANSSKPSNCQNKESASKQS
# [3] = target: Platelet-derived growth factor receptor beta (Homo sapiens, UniProt P09619); test: Inhibition of PDGFRbeta (unknown origin) using poly[Glu:Tyr] (4:1) substrate by radioisotope-based P81 filter-binding assay
# Sequence of Platelet-derived growth factor receptor beta (P09619 whole entry): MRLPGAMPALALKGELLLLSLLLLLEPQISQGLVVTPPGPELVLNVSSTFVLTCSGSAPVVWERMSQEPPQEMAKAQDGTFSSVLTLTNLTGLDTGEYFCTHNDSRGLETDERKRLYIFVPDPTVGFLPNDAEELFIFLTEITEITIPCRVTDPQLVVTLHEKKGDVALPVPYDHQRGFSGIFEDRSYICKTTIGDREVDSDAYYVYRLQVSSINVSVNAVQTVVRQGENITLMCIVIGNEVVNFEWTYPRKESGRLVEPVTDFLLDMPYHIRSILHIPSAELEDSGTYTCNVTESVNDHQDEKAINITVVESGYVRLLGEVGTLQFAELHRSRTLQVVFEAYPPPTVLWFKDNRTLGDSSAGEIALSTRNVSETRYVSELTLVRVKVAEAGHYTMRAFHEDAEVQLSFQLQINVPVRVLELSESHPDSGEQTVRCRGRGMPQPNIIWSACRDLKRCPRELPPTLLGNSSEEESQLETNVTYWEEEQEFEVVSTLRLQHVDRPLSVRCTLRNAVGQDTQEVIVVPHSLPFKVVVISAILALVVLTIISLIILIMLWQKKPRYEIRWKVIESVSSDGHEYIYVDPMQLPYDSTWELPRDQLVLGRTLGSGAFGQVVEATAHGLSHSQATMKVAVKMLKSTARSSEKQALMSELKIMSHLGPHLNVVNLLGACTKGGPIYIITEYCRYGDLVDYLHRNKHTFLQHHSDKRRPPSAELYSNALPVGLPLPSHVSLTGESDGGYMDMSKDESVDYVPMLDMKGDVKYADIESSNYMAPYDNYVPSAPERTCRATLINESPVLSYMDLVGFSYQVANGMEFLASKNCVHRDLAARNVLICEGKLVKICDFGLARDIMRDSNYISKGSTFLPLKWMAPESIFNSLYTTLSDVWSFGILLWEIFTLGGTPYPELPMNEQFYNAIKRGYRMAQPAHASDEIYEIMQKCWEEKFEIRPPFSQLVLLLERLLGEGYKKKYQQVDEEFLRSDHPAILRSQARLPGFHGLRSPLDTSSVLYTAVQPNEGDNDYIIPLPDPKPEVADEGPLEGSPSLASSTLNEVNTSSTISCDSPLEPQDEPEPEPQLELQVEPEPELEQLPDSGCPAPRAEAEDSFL
# [4] = target: T2, Aurora kinase C (Homo sapiens, UniProt Q9UQB9); test: Inhibition of Aurora C (unknown origin) using H-LRRASLG substrate by radioisotope-based P81 filter-binding assay
# T2 sequence (Q9UQB9 whole entry): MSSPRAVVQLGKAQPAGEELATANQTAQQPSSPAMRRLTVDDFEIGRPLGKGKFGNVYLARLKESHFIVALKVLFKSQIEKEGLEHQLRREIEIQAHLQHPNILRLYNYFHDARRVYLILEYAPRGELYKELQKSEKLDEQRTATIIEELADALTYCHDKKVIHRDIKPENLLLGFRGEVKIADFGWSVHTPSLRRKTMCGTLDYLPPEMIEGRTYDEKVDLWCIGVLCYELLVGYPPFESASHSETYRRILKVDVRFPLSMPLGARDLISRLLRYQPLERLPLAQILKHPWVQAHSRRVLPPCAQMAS
# [5] = system: A549; test: Cytotoxicity against human A549 cells by SRB assay; format: cell-based
# [6] = system: HepG2; test: Cytotoxicity against human HepG2 cells by SRB assay; format: cell-based
# [7] = target: T3, Receptor-type tyrosine-protein kinase FLT3 (Homo sapiens, UniProt P36888); test: Inhibition of Flt3 (unknown origin) using EAIYAAPFAKKK substrate by radioisotope-based P81 filter-binding assay
# T3 sequence (P36888 whole entry): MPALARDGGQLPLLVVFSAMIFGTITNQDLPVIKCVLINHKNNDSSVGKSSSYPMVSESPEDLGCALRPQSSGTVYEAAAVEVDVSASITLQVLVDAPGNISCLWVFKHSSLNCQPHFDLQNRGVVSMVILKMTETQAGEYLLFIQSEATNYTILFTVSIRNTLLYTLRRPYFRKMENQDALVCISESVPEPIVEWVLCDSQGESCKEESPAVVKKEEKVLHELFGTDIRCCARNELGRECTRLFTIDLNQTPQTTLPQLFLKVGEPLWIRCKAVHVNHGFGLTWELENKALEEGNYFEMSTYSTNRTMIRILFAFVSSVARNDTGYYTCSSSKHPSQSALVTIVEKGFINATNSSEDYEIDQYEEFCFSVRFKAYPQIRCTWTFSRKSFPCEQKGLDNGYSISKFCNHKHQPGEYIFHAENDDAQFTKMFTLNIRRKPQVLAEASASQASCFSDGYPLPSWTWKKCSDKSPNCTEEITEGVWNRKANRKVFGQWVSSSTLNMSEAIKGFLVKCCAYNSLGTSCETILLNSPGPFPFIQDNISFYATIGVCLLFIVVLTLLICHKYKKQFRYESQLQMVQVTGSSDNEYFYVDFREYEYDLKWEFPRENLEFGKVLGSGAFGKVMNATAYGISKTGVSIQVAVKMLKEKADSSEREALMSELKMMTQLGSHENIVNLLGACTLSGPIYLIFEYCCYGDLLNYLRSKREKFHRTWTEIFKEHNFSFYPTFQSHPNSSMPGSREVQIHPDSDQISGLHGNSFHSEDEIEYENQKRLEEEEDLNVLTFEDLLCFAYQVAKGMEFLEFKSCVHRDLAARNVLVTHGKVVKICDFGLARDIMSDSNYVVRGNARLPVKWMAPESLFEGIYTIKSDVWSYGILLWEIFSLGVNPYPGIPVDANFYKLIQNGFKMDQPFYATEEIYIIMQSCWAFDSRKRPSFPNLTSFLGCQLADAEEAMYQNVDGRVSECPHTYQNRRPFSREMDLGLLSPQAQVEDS
# [8] = target: Platelet-derived growth factor receptor alpha (Homo sapiens, UniProt P16234); test: Inhibition of PDGFRalpha (unknown origin) using poly[Glu:Tyr] (4:1) substrate by radioisotope-based P81 filter-binding assay
# Sequence of Platelet-derived growth factor receptor alpha (P16234 whole entry): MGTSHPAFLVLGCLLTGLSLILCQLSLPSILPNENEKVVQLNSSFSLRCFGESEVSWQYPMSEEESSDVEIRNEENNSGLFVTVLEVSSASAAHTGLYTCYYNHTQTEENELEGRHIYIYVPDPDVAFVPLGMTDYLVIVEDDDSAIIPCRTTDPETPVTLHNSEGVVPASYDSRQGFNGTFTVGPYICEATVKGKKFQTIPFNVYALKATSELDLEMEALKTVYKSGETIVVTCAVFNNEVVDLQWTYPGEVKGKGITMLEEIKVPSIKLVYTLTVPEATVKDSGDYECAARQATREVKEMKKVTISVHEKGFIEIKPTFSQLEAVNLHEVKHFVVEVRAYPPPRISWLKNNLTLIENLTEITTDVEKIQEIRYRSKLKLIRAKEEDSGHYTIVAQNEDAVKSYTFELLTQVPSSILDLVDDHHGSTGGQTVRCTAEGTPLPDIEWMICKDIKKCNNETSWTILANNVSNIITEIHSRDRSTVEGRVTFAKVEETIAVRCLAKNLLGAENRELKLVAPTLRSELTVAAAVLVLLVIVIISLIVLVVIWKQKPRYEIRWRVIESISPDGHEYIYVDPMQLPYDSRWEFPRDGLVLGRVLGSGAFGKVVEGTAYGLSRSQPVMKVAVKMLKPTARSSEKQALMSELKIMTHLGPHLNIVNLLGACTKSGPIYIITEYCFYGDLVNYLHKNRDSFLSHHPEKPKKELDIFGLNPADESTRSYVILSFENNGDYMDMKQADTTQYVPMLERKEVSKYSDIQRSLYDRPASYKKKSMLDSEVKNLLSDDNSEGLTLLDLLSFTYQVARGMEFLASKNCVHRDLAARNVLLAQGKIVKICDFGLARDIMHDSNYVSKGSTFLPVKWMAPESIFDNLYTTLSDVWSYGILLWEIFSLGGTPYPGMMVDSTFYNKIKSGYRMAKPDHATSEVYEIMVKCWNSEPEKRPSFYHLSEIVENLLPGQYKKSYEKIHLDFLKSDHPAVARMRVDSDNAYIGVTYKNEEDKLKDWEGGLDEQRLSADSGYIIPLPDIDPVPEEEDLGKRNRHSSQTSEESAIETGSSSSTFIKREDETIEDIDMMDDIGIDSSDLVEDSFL
# [9] = target: Aurora kinase B (Homo sapiens, UniProt Q96GD4); test: Inhibition of Aurora B (unknown origin) using H-LRRASLG substrate by radioisotope-based P81 filter-binding assay
# Sequence of Aurora kinase B (Q96GD4 whole entry): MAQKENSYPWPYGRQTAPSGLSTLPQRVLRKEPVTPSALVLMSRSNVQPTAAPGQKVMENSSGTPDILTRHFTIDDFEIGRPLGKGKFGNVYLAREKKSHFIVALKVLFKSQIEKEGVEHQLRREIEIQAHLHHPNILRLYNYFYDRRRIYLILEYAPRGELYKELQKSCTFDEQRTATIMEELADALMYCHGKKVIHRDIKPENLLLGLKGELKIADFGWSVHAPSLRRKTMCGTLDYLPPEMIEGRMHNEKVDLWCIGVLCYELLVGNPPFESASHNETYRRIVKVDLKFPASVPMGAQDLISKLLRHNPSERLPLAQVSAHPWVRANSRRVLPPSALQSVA
# [10] = target: Hepatocyte growth factor receptor (Homo sapiens, UniProt P08581); test: Inhibition of c-Met (unknown origin) using KKKSPGEYVNIEFG substrate by radioisotope-based P81 filter-binding assay
# [11] = system: A549; test: Antimigratory activity against human A549 cells assessed as inhibition of cell migration after 8 to 16 hrs by scratch wound model assay
# [12] = system: A549; test: Anti-invasive activity against human A549 cells assessed as inhibition of cell invasion by transwell invasion assay
# Sequence of Vascular endothelial growth factor receptor 2 (P35968 whole entry): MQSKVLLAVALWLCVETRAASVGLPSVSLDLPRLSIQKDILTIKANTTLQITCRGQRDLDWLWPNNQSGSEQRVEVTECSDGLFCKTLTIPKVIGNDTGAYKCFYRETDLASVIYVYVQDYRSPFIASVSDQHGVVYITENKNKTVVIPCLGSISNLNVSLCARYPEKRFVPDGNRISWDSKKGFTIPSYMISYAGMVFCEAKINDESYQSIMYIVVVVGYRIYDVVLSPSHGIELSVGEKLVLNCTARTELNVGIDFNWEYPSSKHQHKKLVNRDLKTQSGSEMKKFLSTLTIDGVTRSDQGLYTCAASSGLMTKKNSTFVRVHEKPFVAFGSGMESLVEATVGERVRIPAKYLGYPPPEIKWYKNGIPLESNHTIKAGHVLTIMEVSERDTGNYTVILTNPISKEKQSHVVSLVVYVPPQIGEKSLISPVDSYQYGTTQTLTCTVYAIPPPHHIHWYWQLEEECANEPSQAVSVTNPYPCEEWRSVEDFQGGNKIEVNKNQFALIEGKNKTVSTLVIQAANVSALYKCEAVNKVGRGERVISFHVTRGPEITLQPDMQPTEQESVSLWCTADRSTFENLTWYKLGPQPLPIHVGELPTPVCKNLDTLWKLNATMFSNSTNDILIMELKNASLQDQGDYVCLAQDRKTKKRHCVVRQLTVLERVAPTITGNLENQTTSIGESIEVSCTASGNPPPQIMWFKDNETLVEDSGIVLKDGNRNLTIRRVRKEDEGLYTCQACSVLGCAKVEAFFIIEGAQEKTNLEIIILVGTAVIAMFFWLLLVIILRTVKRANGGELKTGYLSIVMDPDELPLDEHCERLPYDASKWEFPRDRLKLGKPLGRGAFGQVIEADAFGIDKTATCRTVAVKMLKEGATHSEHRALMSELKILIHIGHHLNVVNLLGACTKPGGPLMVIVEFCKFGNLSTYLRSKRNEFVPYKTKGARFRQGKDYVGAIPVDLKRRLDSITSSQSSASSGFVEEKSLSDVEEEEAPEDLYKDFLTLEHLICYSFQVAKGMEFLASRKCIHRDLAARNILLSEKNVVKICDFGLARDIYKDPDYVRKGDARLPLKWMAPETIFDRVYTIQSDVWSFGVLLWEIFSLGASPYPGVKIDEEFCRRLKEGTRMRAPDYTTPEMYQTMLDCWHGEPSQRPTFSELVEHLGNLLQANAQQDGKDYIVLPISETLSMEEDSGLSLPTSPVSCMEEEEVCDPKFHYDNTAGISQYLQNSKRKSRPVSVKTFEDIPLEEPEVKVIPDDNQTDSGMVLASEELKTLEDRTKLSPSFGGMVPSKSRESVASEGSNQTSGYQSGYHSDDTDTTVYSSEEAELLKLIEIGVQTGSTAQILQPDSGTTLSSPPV
SMILES,IC50 [5] [nM],IC50 [6] [nM],other results
O=C(CC(=O)Nc1ccc2c(c1)NC(=O)/C2=C\c1ccc[nH]1)Nc1ccc(F)cc1,700,1800,IC50 [1]: 1770 nM; IC50 [2]: 552 nM; IC50 [3]: 86.9 nM; IC50 [4]: 67.2 nM; IC50 [7]: 11 nM; IC50 [8]: 7.2 nM
COc1ccc(NC(=O)CC(=O)Nc2ccc3c(c2)NC(=O)/C3=C\c2ccc[nH]2)cc1,3800,2800,IC50 [3]: 177 nM; IC50 [7]: 16.6 nM
COc1ccc(NC(=O)CC(=O)Nc2ccc3c(c2)NC(=O)/C3=C\c2[nH]c(C)c(C(=O)O)c2C)cc1,5400,7800,IC50 [2]: 203 nM; IC50 [3]: 8.1 nM; IC50 [4]: 154 nM; IC50 [9]: 5.9 nM; IC50 [10]: 31.1 nM; IC50 [7]: 6.4 nM; IC50 [8]: < 1 nM
COc1ccc(NC(=O)CC(=O)Nc2ccc3c(c2)NC(=O)/C3=C\c2[nH]c(C)c(C(=O)NCCN3CCCC3)c2C)cc1,5400,5100,IC50 [1]: 20.7 nM; IC50 [3]: 1.54 nM; IC50 [9]: 93 nM; IC50 [10]: 10.6 nM; IC50 [7]: 2.1 nM; IC50 [8]: < 1 nM
O=C1Nc2cc(NC(=O)C3(C(=O)Nc4ccc(F)cc4)CC3)ccc2/C1=C/c1ccc[nH]1,900,1000,IC50 [9]: 253 nM
COc1ccc(NC(=O)C2(C(=O)Nc3ccc4c(c3)NC(=O)/C4=C\c3ccc[nH]3)CC2)cc1,5900,3900,–
O=C1Nc2cccc(NC(=O)c3cccn(-c4ccc(F)cc4)c3=O)c2/C1=C/c1ccc[nH]1,4800,4600,–
O=C1Nc2ccc(NC(=O)c3cccn(-c4ccc(F)cc4)c3=O)cc2/C1=C/c1ccc[nH]1,5400,5400,–
O=C1Nc2c(NC(=O)c3cccn(-c4ccc(F)cc4)c3=O)cccc2/C1=C/c1ccc[nH]1,4500,3900,–
O=C1Nc2cc(NC(=O)c3cccn(-c4ccc(F)cc4)c3=O)ccc2/C1=C/c1ccc[nH]1,700,900,IC50 [11]: 7300 nM; IC50 [12]: > 10000 nM
COc1ccc(-n2cccc(C(=O)Nc3ccc4c(c3)NC(=O)/C4=C\c3ccc[nH]3)c2=O)cc1,3300,5600,–
O=C1Nc2cc(NC(=O)c3cccn(-c4ccccc4)c3=O)ccc2/C1=C/c1ccc[nH]1,4700,5800,–
Cc1ccc(-n2cccc(C(=O)Nc3ccc4c(c3)NC(=O)/C4=C\c3ccc[nH]3)c2=O)cc1,1600,4200,–
O=C1Nc2cc(NC(=O)c3cccn(-c4ccc(Cl)cc4)c3=O)ccc2/C1=C/c1ccc[nH]1,4900,6700,–
O=C1Nc2cc(NC(=O)c3cccn(-c4ccc(C(F)(F)F)cc4)c3=O)ccc2/C1=C/c1ccc[nH]1,3700,3100,–
O=C1Nc2cc(NC(=O)c3cccn(-c4cccc(Cl)c4)c3=O)ccc2/C1=C/c1ccc[nH]1,1500,4900,–
Cn1cccc(C(=O)Nc2ccc3c(c2)NC(=O)/C3=C\c2ccc[nH]2)c1=O,5900,7000,–

SMILES,IC50 [5] [nM],IC50 [6] [nM],other results
O=C1Nc2cc(NC(=O)c3cccn(CCO)c3=O)ccc2/C1=C/c1ccc[nH]1,4500,3900,–
Cc1[nH]c(/C=C2\C(=O)Nc3cc(NC(=O)c4cccn(-c5ccc(F)cc5)c4=O)ccc32)c(C)c1C(=O)O,6300,6100,IC50 [11]: 7900 nM; IC50 [12]: > 10000 nM
Cc1[nH]c(/C=C2\C(=O)Nc3cc(NC(=O)c4cccn(C)c4=O)ccc32)c(C)c1C(=O)O,6600,8100,–
O=C1Nc2cc(NC(=O)c3c[nH]cc(-c4ccc(F)cc4)c3=O)ccc2/C1=C/c1ccc[nH]1,500,1400,IC50 [11]: 6600 nM; IC50 [12]: 7800 nM
COc1ccc(-c2c[nH]cc(C(=O)Nc3ccc4c(c3)NC(=O)/C4=C\c3ccc[nH]3)c2=O)cc1,600,800,–
O=C1Nc2cc(NC(=O)c3c[nH]cc(-c4ccccc4)c3=O)ccc2/C1=C/c1ccc[nH]1,500,1100,IC50 [9]: 33.1 nM
Cc1ccc(-c2c[nH]cc(C(=O)Nc3ccc4c(c3)NC(=O)/C4=C\c3ccc[nH]3)c2=O)cc1,500,700,–
O=C1Nc2cc(NC(=O)c3c[nH]cc(-c4ccc(Cl)cc4)c3=O)ccc2/C1=C/c1ccc[nH]1,< 100,700,–
O=C1Nc2cc(NC(=O)c3c[nH]cc(-c4ccc(C(F)(F)F)cc4)c3=O)ccc2/C1=C/c1ccc[nH]1,500,700,–
O=C1Nc2cc(NC(=O)c3c[nH]cc(-c4cccc(Cl)c4)c3=O)ccc2/C1=C/c1ccc[nH]1,500,600,–
Cc1c[nH]cc(C(=O)Nc2ccc3c(c2)NC(=O)/C3=C\c2ccc[nH]2)c1=O,5500,3100,–
COc1ccc(-c2c[nH]cc(C(=O)Nc3ccc4c(c3)NC(=O)/C4=C\c3[nH]c(C)c(C(=O)O)c3C)c2=O)cc1,> 10000,> 10000,–
Cc1[nH]c(/C=C2\C(=O)Nc3cc(NC(=O)c4c[nH]cc(-c5ccc(F)cc5)c4=O)ccc32)c(C)c1C(=O)N1CCN(C)CC1,600,700,–
Cc1[nH]c(/C=C2\C(=O)Nc3cc(NC(=O)c4c[nH]cc(-c5ccc(F)cc5)c4=O)ccc32)c(C)c1CC(=O)N1CCN(C)CC1,600,700,–
Cc1[nH]c(/C=C2\C(=O)Nc3cc(NC(=O)c4c[nH]cc(-c5ccc(F)cc5)c4=O)ccc32)c(C)c1C(=O)N1CCOCC1,5800,6700,–
Cc1[nH]c(/C=C2\C(=O)Nc3cc(NC(=O)c4c[nH]cc(-c5ccc(F)cc5)c4=O)ccc32)c(C)c1CC(=O)N1CCOCC1,5200,6700,–
CCN(CCO)CCCOc1ccc2c(Nc3cc(CC(=O)Nc4cccc(F)c4)[nH]n3)ncnc2c1 [DEFOSBARASERTIB],100,100,IC50 [11]: 8300 nM; IC50 [12]: 5400 nM
